Measurements as given in publication PMC4485890 (PLoS ONE, 2015).
Where two headings read alike, the source gives them in different places.

Tests used:
[1] = system: NUDT16; settings: cited from earlier work; for K m, Ref. 14 / k cat, Ref. 14 / k cat/K m, Ref. 14: literature values, ref 14 (Iyama et al)
[2] = target: T1, human NUDT16 (wild-type) (Homo sapiens, UniProt Q96DE0); test: Determination of kinetic parameters of NUDT16 wild-type (malachite green phosphate release assay); assay type: biochemical; parameters: 6-His tag followed by TEV protease site (N, cleaved yes); made in house; host or cells: E. coli Rosetta pLysS; settings: for Hydrolysis by NUDT16 (qualitative): malachite green assay, sub-μM K m not determinable; for k cat/K m, This work / k cat, This work / K m, This work: Michaelis-Menten fit; for k cat, This work / K m, This work: substrate hydrolysis, 37°C; for K m, This work: buffer pH 7.5, 20 mM MgCl2
Source text: To establish an assay to look for product inhibition and to understand the role of the different substituents present on the purine ring, we first wanted to assess the activity of our protein preparations and compare it to the results obtained by Iyama et al. on NUDT16 activity on different nucleotides. Contrary to the results presented in the structural biology part, we used wild-type NUDT16 (no A22V mutation) for these activity studies. Using a malachite green based activity assay for quantification of phosphate release, we determined the kinetic parameters of NUDT16 hydrolysis when incubated in the presence of ITP, XDP and ADP (S3A–S3C Fig), all of which have a suitable K m for assessment with this assay and for inhibition studies (low μM range). The results are summarized and compared in Table 1 with the literature values. […] Our K m values for XDP and ITP are in the same range as data reported in Iyama et al.. Discrepancies between the two studies can be explained by differences in the detection methods (HPLC or malachite green assay), the protein constructs (with or without His-tag) and the buffer conditions. […] However, the k cat for ADP was 15 times higher, leading to a catalytic efficiency in the same range as the one determined for XDP and ITP. Such a correlation between low affinity K m values and low apparent rate constant values is also noticeable when looking more broadly at available data for the purine based substrates.
(§1) Each sample point was obtained in the presence of 1 μM of NUDT16 (0.1 μM when assayed for activity against ITP) and various concentrations of substrates in buffer C (50 mM Tris-HCl pH 7.5, 150 mM NaCl, 20 mM MgCl2, 0.005% Tween-20, and 0.5 mM TCEP). When ITP was used as a substrate, 0.1 unit of yeast inorganic pyrophosphatase (Sigma-Aldrich) was added to the well. The activity assay was performed in 100 μl in a 96-well plate at 37°C and was stopped by addition of 25 μl of Malachite Green Working Solution (prepared as described in [42]). Plate was kept under shaking at room-temperature for 15 min, then 100 μl were transferred into a 384-well plate and the measurement of the absorbance at 630nm was carried out either on a CLARIOstar (BMG LABTECH) or a Victor^3 (PerkinElmer) reader.
(§2) The amount of free phosphate produced during the hydrolysis was estimated by comparison with a standard curve.
(§3) Experiments were performed in triplicate and data analysis was done on GraphPad Prism version 5.01 for Windows (GraphPad Software, San Diego California USA, www.graphpad.com).
(§4) For each assayed substrate, starting substrate concentrations (varying from 0.5 to 240 μM) and incubation times (from 20 to 240 min) were selected in order for the quasi-steady-state assumption to remain valid.

[3] = target: T1, human NUDT16 (wild-type); test: Binding of products to NUDT16 by isothermal titration calorimetry
Experimental: NUDT16 was dialyzed against 20 mM Hepes pH 7.5, 300 mM NaCl, 20 mM MgCl2, 10% glycerol, and 0.5 mM TCEP in a Slide-a-Lyzer cassette (7kDa cut-off). […] The buffer compositions in the cell and the syringe were carefully matched such that the sole difference between them was either the protein or the nucleotide content.
Titrations were performed at 25°C using 32 injections of 1.2μl of nucleotide solutions (following a 1μl pre-injection) spaced by 120 sec into the 200 μl experimental cell on a iTC200 MicroCal instrument (GE Healthcare) at the Karolinska Institutet/SciLifeLab Protein Science Core Facility (http://psf.ki.se).
Binding isotherm and thermodynamic constants were determined through fitting experimental data against a one-site binding-model (number of sites, ΔH and K a being unconstrained during refinement) on Origin software v7.0552 (OriginLab).

[4] = target: T2, NUDT16 A22V (Homo sapiens, UniProt Q96DE0, A22V); test: Determination of kinetic parameters of NUDT16 A22V (malachite green assay); assay type: biochemical; settings: A22V mutant, Michaelis-Menten fit
T2 construct: 6-His tag followed by TEV protease site (N, cleaved yes); made in house; host or cells: E. coli Rosetta
Experimental: It is worth noting that the protein construct used to obtain the two NUDT16 crystal structures harbors an A22V mutation (see Material and Methods section). […] This was confirmed by comparing the kinetic parameters of NUDT16 wild-type with those obtained with the A22V mutation (S1 Table) when NUDT16 was assayed against XDP and ITP. […] Detailed schemes of all interactions between protein, nucleotide and metals are shown on Fig 3C–3E.
as §1, §2, §3, §4
The procedure was identical whether NUDT16 wild-type or A22V was used in the assay.

[5] = ITC, 25°C, one binding-site model

T2 sequence (Q96DE0 whole entry A22V): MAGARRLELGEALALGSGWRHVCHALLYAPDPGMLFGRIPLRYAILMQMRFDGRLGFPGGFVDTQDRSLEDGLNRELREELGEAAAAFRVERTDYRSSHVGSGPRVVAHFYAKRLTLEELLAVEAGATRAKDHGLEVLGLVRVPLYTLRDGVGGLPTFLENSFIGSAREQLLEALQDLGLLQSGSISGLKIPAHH
T1 sequence (Q96DE0 whole entry): as the sequence (Q96DE0 whole entry A22V) above, with V22A counted along it

k cat/K m, This work ([2]; NUDT16 wild-type) | k cat, This work ([2]; NUDT16 wild-type) [s⁻¹] | K m, This work ([2]; NUDT16 wild-type) [µM] | Compound | K m, Ref. 14 [1] [µM] | k cat, Ref. 14 [1] [s⁻¹] | k cat/K m, Ref. 14 [1] | further results
– | – | – | Nc1nc2c(ncn2[C@@H]2O[C@H](COP(=O)(O)OP(=O)(O)O)[C@@H](O)[C@H]2O)c(=O)[nH]1 [GDP] | 0.33 | 0.00863 | 26.1 10^3 s^-1M^-1 | Hydrolysis by NUDT16 (qualitative) [2]: process efficiently
– | – | – | Nc1nc(=O)c2ncn([C@@H]3O[C@H](COP(=O)(O)O)[C@@H](O)[C@H]3O)c2[nH]1 [GMP] | – | – | – | Kd [3]: 34.25 ± 0.05 µM; N sites [3, 5]: 1.080 ± 0.015
0.52 ± 0.10 10^3 s^-1M^-1 | 0.0959 ± 0.00897 | 185 ± 32 | Nc1ncnc2c1ncn2[C@@H]1O[C@H](COP(=O)(O)OP(=O)(O)O)[C@@H](O)[C@H]1O [ADP] | – | – | – | K m for ADP relative to XDP (times higher) ([2]; NUDT16 wild-type): about 30 times; k cat for ADP relative to XDP (times higher) ([2]; NUDT16 wild-type): 15 times
– | – | – | O=c1[nH]c(=O)c2ncn([C@@H]3O[C@H](COP(=O)(O)O)[C@@H](O)[C@H]3O)c2[nH]1 [XMP] | – | – | – | Kd [3]: 39.06 ± 0.07 µM; N sites [3, 5]: 0.821 ± 0.024
– | – | – | Nc1ncnc2c1ncn2[C@@H]1O[C@H](COP(=O)(O)O)[C@@H](O)[C@H]1O [AMP] | – | – | – | Kd ([3]; ITC, 25°C, one binding-site model, 20 mM MgCl2, pH 7.5): too low for establishing good binding constants
0.99 ± 0.23 10^3 s^-1M^-1 | 0.00613 ± 0.0013 | 6.22 ± 0.55 | O=c1[nH]c(=O)c2ncn([C@@H]3O[C@H](COP(=O)(O)OP(=O)(O)O)[C@@H](O)[C@H]3O)c2[nH]1 [XDP] | 15.7 | 0.0433 | 2.76 10^3 s^-1M^-1 | Km [4]: 9.7 ± 1.25 µM; kcat, NUDT16 A22V [4]: 0.00515 ± 0.0002 s⁻¹
1.55 ± 0.20 10^3 s^-1M^-1 | 0.0127 ± 0.0005 | 8.23 ± 1.01 | O=c1[nH]cnc2c1ncn2[C@@H]1O[C@H](COP(=O)(O)OP(=O)(O)OP(=O)(O)O)[C@@H](O)[C@H]1O [ITP] | 22.1 | 0.051 | 2.31 10^3 s^-1M^-1 | Km [4]: 12.8 ± 1.46 µM; kcat, NUDT16 A22V [4]: 0.00657 ± 0.000217 s⁻¹
– | – | – | O=P(O)(O)OP(=O)(O)OC[C@H]1O[C@@H](n2cnc3c(O)ncnc32)[C@H](O)[C@@H]1O [IDP, inosine diphosphate] | 0.066 | 0.0155 | 251 10^3 s^-1M^-1 | K m for IDP relative to ITP (times lower) ([1]; ref 14 (Iyama et al.)): 350 times; Hydrolysis by NUDT16 (qualitative) [2]: process efficiently
